In US4431640A, “Process for inducing anabolic and androgenic activity in animals” (Roussel Uclaf, priority 1980, dated 1984):

Tests used:
calves of the FFPN race = experiment: weight gain test in calves after percutaneous treatment; assay type: in vivo
Description: This test was effected with groups of calves of the FFPN race and all groups received the same amount of feed. The control group were untreated and the other group received percutaneously on day J and J+7 200 mg of the compound of Example 1. The weights of the animals were determined 7 days before the treatment (J-7), on the day of treatment (J), on the day of the second treatment (J+7) and one week after the second treatment (J+14) and the results are reported in the following Table.

androgen receptor = target: T1, androgen receptor (Rattus norvegicus, UniProt P15207); experiment: androgenic activity by hormonal receptor method (displacement of tritied R from prostate cytosol); assay type: binding, rats; conditions: castrated male rat prostate cytosol, incubated at 0° C. for 2 hours, testosterone = 100
T1 construct: The prostate was removed from male rats castrated 24 hours earlier and it was homogenized; from tissue; host or cells: prostate cytosol (105,000 g supernatant) of male rats castrated 24 hours earlier
T1 sequence (P15207 1-902): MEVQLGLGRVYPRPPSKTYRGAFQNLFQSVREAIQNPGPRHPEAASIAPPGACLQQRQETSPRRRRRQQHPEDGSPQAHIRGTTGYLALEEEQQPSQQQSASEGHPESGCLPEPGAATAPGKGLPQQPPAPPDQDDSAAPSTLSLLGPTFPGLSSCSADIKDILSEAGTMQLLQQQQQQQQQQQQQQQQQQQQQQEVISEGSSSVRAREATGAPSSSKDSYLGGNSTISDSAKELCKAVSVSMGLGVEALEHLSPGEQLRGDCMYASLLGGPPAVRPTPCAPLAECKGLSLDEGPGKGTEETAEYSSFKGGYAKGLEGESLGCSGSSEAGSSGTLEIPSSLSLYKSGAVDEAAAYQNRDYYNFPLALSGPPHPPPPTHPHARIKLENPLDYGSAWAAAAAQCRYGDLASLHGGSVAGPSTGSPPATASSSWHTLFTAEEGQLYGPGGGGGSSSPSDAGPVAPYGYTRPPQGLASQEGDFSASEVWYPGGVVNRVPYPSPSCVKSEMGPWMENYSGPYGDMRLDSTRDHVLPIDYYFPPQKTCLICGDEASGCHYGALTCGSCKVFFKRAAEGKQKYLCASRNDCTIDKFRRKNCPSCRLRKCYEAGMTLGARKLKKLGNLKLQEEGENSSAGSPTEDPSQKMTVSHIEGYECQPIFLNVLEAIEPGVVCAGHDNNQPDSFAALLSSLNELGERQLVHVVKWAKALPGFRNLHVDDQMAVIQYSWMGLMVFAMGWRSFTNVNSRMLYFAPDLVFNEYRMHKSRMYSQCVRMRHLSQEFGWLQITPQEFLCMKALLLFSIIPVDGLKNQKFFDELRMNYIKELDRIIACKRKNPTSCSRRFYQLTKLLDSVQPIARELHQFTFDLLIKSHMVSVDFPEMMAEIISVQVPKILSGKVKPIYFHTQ
Description: The androgenic activity of the compound of Example 1 and 11β-propyl-17α-methyl-Δ^4,9 -estradiene-17β-ol-3-one (compound A) were compared by the hormonal receptor method of Raynaud et al [J. Ster. Biochem., Vol. 6 (1975), p. 615-622]. The prostate was removed from male rats castrated 24 hours earlier and it was homogenized in a buffered 10 mmole tromethamine solution containing 0.25 M of saccharose and a pH of 7.4 with hydrochloric acid. The homogenate was centrifuged at 105,000 g for one hour and the liquid surnageant or "cytosol" was adjusted to obtain a 1/5 (weight/volume) dilution.
The radioactivity of tritied product was determined after about 2 hours in the receptor by the technique of carbon-dextran (1.25%-0.625%) absorption. […] B/T max. is the percentage of tied tritied R product when the compound is not added. B/T min. is the percentage of tied tritied product R when the maximum amount of cold product R is added. […] The relative affinity of the test product or ARL was determined using the formula [formula]

C[C@H]1C[C@@]2(C)[C@@H](CC[C@]2(C)O)[C@@H]2CCC3=CC(=O)CCC3=C21 [Example 1, 11β,17α-dimethyl-Δ^4,9-estradiene-17β-ol-3-one]
average weight gain (calves of the FFPN race; 7 days after the test, J 14 to J 21, 200 mg percutaneously on J and J+7): 8.63 kg
Average weight of calves (calves of the FFPN race; day J + 7, day of second treatment, 200 mg percutaneously on J and J+7): 60.47 kg
Average weight of calves (calves of the FFPN race; day J + 14, one week after second treatment, 200 mg percutaneously on J and J+7): 70.67 kg
Average weight of calves (calves of the FFPN race; day J - 7, 7 days before the treatment (baseline)): 45.50 kg
Average weight of calves (calves of the FFPN race; day J, day of first treatment (200 mg percutaneously)): 52.30 kg
average weight gain (calves of the FFPN race; table total (J to J + 14), 200 mg percutaneously on J and J+7): 18.37 kg
relative affinity (ARL) (androgen receptor): 90

CCC[C@H]1C[C@@]2(C)[C@@H](CC[C@]2(C)O)[C@@H]2CCC3=CC(=O)CCC3=C12 [product A, 11β-propyl-17α-methyl-Δ^4,9-estradiene-17β-ol-3-one, reference compound]
relative affinity (ARL) (androgen receptor): 22
